# Test results as given in PubChem BioAssay AID1963825 (Molecular Pharmacology Branch, DTP, NCI, 2024).
# Assay: Anticancer human tumor 997537-175-T-J1-PDC patient-derived colon adenocarcinoma cell line growth inhibition [POLQ]
# Details: 997537-175-T-J1-PDC complex spheroid viability, combination with POLQ inhibitors; for IC50: curve of first compound; for viability, T/C: stronger effect = lower value
# Method in brief: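 Patient-derived tumour cells were co-cultured with HUVEC and mesenchymal stem cells as multicellular spheroids at 37 °C. They were treated with POLQ inhibitors (novobiocin, ART-558, RP6685) alone or combined with other agents. Top concentrations were at or near clinical Cmax (otherwise 10 microM; SN-38 at 1 microM), decreasing in half-log steps.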
# [1] = second compound 0.0316 µM, first compound 0.0316 µM
# [2] = second compound 0.0316 µM, first compound 0.1 µM
# [3] = second compound 0.0316 µM, first compound 0.316 µM
# [4] = second compound 0.0316 µM, first compound 1 µM
# [5] = second compound 0.0316 µM, first compound 3.16 µM
# [6] = second compound 0.0316 µM, first compound 10 µM
# [7] = second compound 0.1 µM, first compound 0.0316 µM
# [8] = second compound 0.1 µM, first compound 0.1 µM
# [9] = second compound 0.1 µM, first compound 0.316 µM
# [10] = second compound 0.1 µM, first compound 1 µM
# [11] = second compound 0.1 µM, first compound 3.16 µM
# [12] = second compound 0.1 µM, first compound 10 µM
# [13] = second compound 0.316 µM, first compound 0.0316 µM
# [14] = second compound 0.316 µM, first compound 0.1 µM
# [15] = second compound 0.316 µM, first compound 0.316 µM
# [16] = second compound 0.316 µM, first compound 1 µM
# [17] = second compound 0.316 µM, first compound 3.16 µM
# [18] = second compound 0.316 µM, first compound 10 µM
# [19] = second compound 1 µM, first compound 0.0316 µM
# [20] = second compound 1 µM, first compound 0.1 µM
# [21] = second compound 1 µM, first compound 0.316 µM
# [22] = second compound 1 µM, first compound 1 µM
# [23] = second compound 1 µM, first compound 3.16 µM
# [24] = second compound 1 µM, first compound 10 µM
# [25] = second compound 3.16 µM, first compound 0.0316 µM
# [26] = second compound 3.16 µM, first compound 0.1 µM
# [27] = second compound 3.16 µM, first compound 0.316 µM
# [28] = second compound 3.16 µM, first compound 1 µM
# [29] = second compound 3.16 µM, first compound 3.16 µM
# [30] = second compound 3.16 µM, first compound 10 µM
# [31] = second compound 10 µM, first compound 0.0316 µM
# [32] = second compound 10 µM, first compound 0.1 µM
# [33] = second compound 10 µM, first compound 0.316 µM
# [34] = second compound 10 µM, first compound 1 µM
# [35] = second compound 10 µM, first compound 3.16 µM
# [36] = second compound 10 µM, first compound 10 µM
# 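Note: luminescence signal used as a surrogate for viable cells; spheroids exposed to drugs for seven days before readout.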
compound,measurement,setting,value
CNCc1ccc(-c2[nH]c3cc(F)cc4c3c2CCNC4=O)cc1 + Nc1ccc(C#CCN(C(=O)Cc2ncc(C(F)(F)F)cc2C(F)(F)F)c2ccc(F)cc2)nn1,IC50,second compound 0.0316 µM,> 10 µM
same,IC50,second compound 0.1 µM,> 10 µM
same,IC50,second compound 0.316 µM,> 10 µM
same,IC50,second compound 1 µM,> 10 µM
same,IC50,second compound 3.16 µM,> 10 µM
same,IC50,second compound 10 µM,> 10 µM
same,"viability, T/C",[1],106%
same,"viability, T/C",[2],102%
same,"viability, T/C",[3],100%
same,"viability, T/C",[4],97.1%
same,"viability, T/C",[5],103%
same,"viability, T/C",[6],104%
same,"viability, T/C",[7],98.6%
same,"viability, T/C",[8],102%
same,"viability, T/C",[9],93.2%
same,"viability, T/C",[10],95.5%
same,"viability, T/C",[11],99.2%
same,"viability, T/C",[12],101%
same,"viability, T/C",[13],87.3%
same,"viability, T/C",[14],108%
same,"viability, T/C",[15],106%
same,"viability, T/C",[16],90.8%
same,"viability, T/C",[17],97.7%
same,"viability, T/C",[18],99.7%
same,"viability, T/C",[19],90%
same,"viability, T/C",[20],108%
same,"viability, T/C",[21],102%
same,"viability, T/C",[22],94.6%
same,"viability, T/C",[23],110%
same,"viability, T/C",[24],89.8%
same,"viability, T/C",[25],93.1%
same,"viability, T/C",[26],95.6%
same,"viability, T/C",[27],85.1%
same,"viability, T/C",[28],99.1%
same,"viability, T/C",[29],96.2%
same,"viability, T/C",[30],111%
same,"viability, T/C",[31],87.4%
same,"viability, T/C",[32],104%
same,"viability, T/C",[33],101%
same,"viability, T/C",[34],96.8%
same,"viability, T/C",[35],110%
same,"viability, T/C",[36],114%
CCc1c2c(nc3ccc(O)cc13)-c1cc3c(c(=O)n1C2)COC(=O)[C@]3(O)CC + Nc1ccc(C#CCN(C(=O)Cc2ncc(C(F)(F)F)cc2C(F)(F)F)c2ccc(F)cc2)nn1,IC50,second compound 0.0316 µM,0.0249 µM
same,IC50,second compound 0.1 µM,0.0154 µM
same,IC50,second compound 0.316 µM,0.0295 µM
same,IC50,second compound 1 µM,0.02 µM
same,IC50,second compound 3.16 µM,0.0219 µM
same,IC50,second compound 10 µM,0.0163 µM
same,"viability, T/C","second compound 0.0316 µM, first compound 0.00316 µM",89.5%
same,"viability, T/C","second compound 0.0316 µM, first compound 0.01 µM",91.4%
same,"viability, T/C",[1],39.2%
same,"viability, T/C",[2],19%
same,"viability, T/C",[3],6.65%
same,"viability, T/C",[4],10.3%
same,"viability, T/C","second compound 0.1 µM, first compound 0.00316 µM",89.9%
same,"viability, T/C","second compound 0.1 µM, first compound 0.01 µM",60.1%
same,"viability, T/C",[7],32.7%
same,"viability, T/C",[8],20.1%
same,"viability, T/C",[9],6.93%
same,"viability, T/C",[10],6.26%
same,"viability, T/C","second compound 0.316 µM, first compound 0.00316 µM",79.8%
same,"viability, T/C","second compound 0.316 µM, first compound 0.01 µM",65.1%
same,"viability, T/C",[13],51.6%
same,"viability, T/C",[14],19.6%
same,"viability, T/C",[15],6.57%
same,"viability, T/C",[16],10.8%
same,"viability, T/C","second compound 1 µM, first compound 0.00316 µM",83.5%
same,"viability, T/C","second compound 1 µM, first compound 0.01 µM",70.4%
same,"viability, T/C",[19],33.9%
same,"viability, T/C",[20],22.8%
same,"viability, T/C",[21],5.79%
same,"viability, T/C",[22],5.67%
same,"viability, T/C","second compound 3.16 µM, first compound 0.00316 µM",74.1%
same,"viability, T/C","second compound 3.16 µM, first compound 0.01 µM",66.7%
same,"viability, T/C",[25],42%
same,"viability, T/C",[26],16.7%
same,"viability, T/C",[27],7.19%
same,"viability, T/C",[28],6.33%
same,"viability, T/C","second compound 10 µM, first compound 0.00316 µM",76.5%
same,"viability, T/C","second compound 10 µM, first compound 0.01 µM",65.5%
same,"viability, T/C",[31],29%
same,"viability, T/C",[32],17.8%
same,"viability, T/C",[33],9.23%
same,"viability, T/C",[34],3.78%
O=C(Nc1ccc(O)c(NS(=O)(=O)c2ccc(F)cc2)c1)c1ccc(-c2ccccc2)cc1 + COC1C(OC(N)=O)C(O)C(Oc2ccc3c(O)c(NC(=O)c4ccc(O)c(CC=C(C)C)c4)c(=O)oc3c2C)OC1(C)C,IC50,second compound 0.0316 µM,> 10 µM
same,IC50,second compound 0.1 µM,> 10 µM
same,IC50,second compound 0.316 µM,> 10 µM
same,IC50,second compound 1 µM,> 10 µM
same,IC50,second compound 3.16 µM,> 10 µM
same,IC50,second compound 10 µM,> 10 µM
same,"viability, T/C",[1],98.4%
same,"viability, T/C",[2],109%
same,"viability, T/C",[3],104%
same,"viability, T/C",[4],103%
same,"viability, T/C",[5],102%
same,"viability, T/C",[6],97.3%
same,"viability, T/C",[7],112%
same,"viability, T/C",[8],94.4%
same,"viability, T/C",[9],97%
same,"viability, T/C",[10],88.8%
same,"viability, T/C",[11],96%
same,"viability, T/C",[12],95.1%
same,"viability, T/C",[13],108%
same,"viability, T/C",[14],102%
same,"viability, T/C",[15],105%
same,"viability, T/C",[16],96%
same,"viability, T/C",[17],102%
same,"viability, T/C",[18],97.3%
same,"viability, T/C",[19],98.3%
same,"viability, T/C",[20],98.7%
same,"viability, T/C",[21],86%
same,"viability, T/C",[22],94%
same,"viability, T/C",[23],93.9%
same,"viability, T/C",[24],99.3%
same,"viability, T/C",[25],97.5%
same,"viability, T/C",[26],93.2%
same,"viability, T/C",[27],91.8%
same,"viability, T/C",[28],90.2%
same,"viability, T/C",[29],97.5%
same,"viability, T/C",[30],98.8%
same,"viability, T/C",[31],93.6%
same,"viability, T/C",[32],95.7%
same,"viability, T/C",[33],109%
same,"viability, T/C",[34],91.5%
same,"viability, T/C",[35],102%
same,"viability, T/C",[36],91.5%
